Numbers after ± are expanded uncertainties.
Conditions: Liquid, Pendant drop shape

[HH] [hydrogen] + O
Conditions	interfacial tension [mN/m]
298.03 K, 500 kPa	72.3 ± 1.2
298.03 K, 1000 kPa	72.9 ± 1.2
298.04 K, 2000 kPa	73 ± 1.2
298.04 K, 5000 kPa	72.6 ± 1.2
298.04 K, 7500 kPa	72.2 ± 1.2
298.04 K, 10100 kPa	71.9 ± 1.2
298.04 K, 25000 kPa	70.3 ± 1.2
298.05 K, 3500 kPa	72.8 ± 1.2
298.05 K, 45200 kPa	68.7 ± 1.2
298.06 K, 15000 kPa	71.3 ± 1.2
298.06 K, 20100 kPa	70.8 ± 1.2
298.06 K, 30100 kPa	69.8 ± 1.2
298.09 K, 39900 kPa	69.1 ± 1.2
322.9 K, 1000 kPa	69.3 ± 1.2
322.98 K, 2000 kPa	69.3 ± 1.2
322.99 K, 5000 kPa	68.9 ± 1.2
323 K, 3500 kPa	69.1 ± 1.2
323 K, 10000 kPa	68.3 ± 1.2
323 K, 15000 kPa	67.8 ± 1.2
323 K, 40100 kPa	65.8 ± 1.1
323.01 K, 20000 kPa	67.2 ± 1.1
323.01 K, 25000 kPa	66.8 ± 1.1
323.02 K, 500 kPa	68.9 ± 1.2
323.02 K, 30100 kPa	66.5 ± 1.1
372.73 K, 15000 kPa	59 ± 1
372.74 K, 500 kPa	59.8 ± 1
372.77 K, 1000 kPa	59.7 ± 1
372.77 K, 25200 kPa	58.5 ± 1
372.77 K, 29800 kPa	58.1 ± 1
372.78 K, 2000 kPa	59.7 ± 1
372.78 K, 40100 kPa	57.6 ± 1
372.81 K, 10000 kPa	59.3 ± 1
372.85 K, 20100 kPa	58.7 ± 1
372.87 K, 5000 kPa	59.5 ± 1
448.02 K, 2000 kPa	44.1 ± 0.8
448.04 K, 1500 kPa	44 ± 0.8
448.24 K, 5000 kPa	43.8 ± 0.7
448.28 K, 15000 kPa	43.4 ± 0.7
448.29 K, 10000 kPa	43.7 ± 0.7
448.31 K, 25000 kPa	43.2 ± 0.7
448.31 K, 30100 kPa	42.9 ± 0.7
448.33 K, 20000 kPa	43.3 ± 0.7
448.35 K, 40100 kPa	43.2 ± 0.7
